Here are results for 41 substances from patent US7897582B2, “Oligonucleotide compositions and methods for the modulation of the expression of B7 protein” (Isis Pharmaceuticals, Inc., priority 2003, dated 2011).

Strand notation (5' to 3'): a small letter for the sugar, then the base; units joined by * are phosphorothioate-linked, units joined directly phosphodiester-linked; [ ] holds rarer units or linkages, { } end groups; capitals alone tell only the bases. e = 2'-O-(2-methoxyethyl) (MOE); [5mC] = 5-methylcytosine; d = 2'-deoxy (DNA)

The subject of the data set is human B7.2 mRNA. The experiment in a line: Human B7.2 mRNA levels in THP-1 cells by quantitative real-time PCR (Example 27). The data set is classed as cell-based. More on the design: concentration or dose not given beside the values. The text has this: In accordance with the present invention, an additional series of antisense compounds were designed to target different regions of the human B7.2 RNA, using published sequences (GenBank accession number U04343.1, incorporated herein as SEQ ID NO: 295, GenBank accession number BC040261.1, incorporated herein as SEQ ID NO: 296 and GenBank accession number NT—005543.12, a portion of which is incorporated herein as SEQ ID NO: 297). “Target site” indicates the first (5′-most) nucleotide number on the particular target sequence to which the compound binds. All compounds in Table 25 are chimeric oligonucleotides (“gapmers”) 20 nucleotides in length, composed of a central “gap” region consisting of ten 2′-deoxynucleotides, which is flanked on both sides (5′ and 3′ directions) by five-nucleotide “wings”. The wings are composed of 2′-methoxyethyl (2′-MOE)nucleotides. The internucleoside (backbone) linkages are phosphorothioate (P═S) throughout the oligonucleotide. All cytidine residues are 5-methylcytidines. The compounds were analyzed for their effect on human B7.2 mRNA levels in THP-1 cells by quantitative real-time PCR as described in other examples herein. Data are averages from three experiments. If present, “N.D.” indicates “no data”.
For orientation: In qPCR the cycle at which signal appears reflects the starting amount.
In the case of “323635 (antisense e[5mC]*eT*eG*e[5mC]*e[5mC]*dA*dA*dA*dA*dT*dA*d[5mC]*dT*dA*d[5mC]*eT*eA*eG*e[5mC]*eT) [compound 323635]”, the “% INHIB (inhibition of human B7.2 mRNA levels)” value (shortened to “% INHIB”) was determined as 24%.

Regarding “323636 (antisense eT*eT*e[5mC]*eA*eG*dA*dA*d[5mC]*d[5mC]*dA*dA*dG*dT*dT*dT*eT*e[5mC]*e[5mC]*eT*eG) [compound 323636]”, the “% INHIB” value came to 23%.

With “323637 (antisense e[5mC]*e[5mC]*eT*e[5mC]*eA*dT*dT*d[5mC]*dA*dG*dA*dA*d[5mC]*d[5mC]*dA*eA*eG*eT*eT*eT) [compound 323637]”, the “% INHIB” value was 19%.

Consider “323638 (antisense eG*eT*eA*eT*eA*d[5mC]*d[5mC]*dT*d[5mC]*dA*dT*dT*d[5mC]*dA*dG*eA*eA*e[5mC]*e[5mC]*eA) [compound 323638]”, for which the “% INHIB” value came to 20%.

Regarding “323639 (antisense eG*e[5mC]*e[5mC]*eT*eA*dA*dG*dT*dA*dT*dA*d[5mC]*d[5mC]*dT*d[5mC]*eA*eT*eT*e[5mC]*eA) [compound 323639]”, the “% INHIB” value is 55%.

“323640 (antisense e[5mC]*eT*e[5mC]*eT*eT*dT*dG*d[5mC]*d[5mC]*dT*dA*dA*dG*dT*dA*eT*eA*e[5mC]*e[5mC]*eT) [compound 323640]”: the “% INHIB” value was 28%.

As to “323641 (antisense e[5mC]*e[5mC]*e[5mC]*eA*eT*dA*dT*dA*d[5mC]*dT*dT*dG*dG*dA*dA*eT*eG*eA*eA*e[5mC]) [compound 323641]”, the “% INHIB” value was determined as 88%.

Take “323642 (antisense e[5mC]*eT*eT*eG*eT*dG*d[5mC]*dG*dG*d[5mC]*d[5mC]*d[5mC]*dA*dT*dA*eT*eA*e[5mC]*eT*eT) [compound 323642]”: the “% INHIB” value is on record as 27%.

For the substance “323643 (antisense eA*eT*e[5mC]*eA*eA*dA*dA*d[5mC]*dT*dT*dG*dT*dG*d[5mC]*dG*eG*e[5mC]*e[5mC]*e[5mC]*eA) [compound 323643]”, the “% INHIB” value stood at 80%.

Take “323644 (antisense e[5mC]*e[5mC]*e[5mC]*eT*eT*dG*dT*d[5mC]*d[5mC]*dT*dT*dG*dA*dT*d[5mC]*eT*eG*eA*eA*eG) [compound 323644]”: the “% INHIB” value is reported as 71%.

On to “323645 (antisense eA*e[5mC]*eA*eA*eG*d[5mC]*d[5mC]*d[5mC]*dT*dT*dG*dT*d[5mC]*d[5mC]*dT*eT*eG*eA*eT*e[5mC]) [compound 323645]”, for which the “% INHIB” value is listed as 56%.

As for “323646 (antisense eT*eT*eG*eA*eT*dA*d[5mC]*dA*dA*dG*d[5mC]*d[5mC]*d[5mC]*dT*dT*eG*eT*e[5mC]*e[5mC]*eT) [compound 323646]”, the “% INHIB” value was found to be 33%.

As for “323647 (antisense eA*eT*eA*e[5mC]*eA*dT*dT*dG*dA*dT*dA*d[5mC]*dA*dA*dG*e[5mC]*e[5mC]*e[5mC]*eT*eT) [compound 323647]”, the “% INHIB” value is listed as 41%.

On to “323648 (antisense eT*eG*eG*eA*eT*dG*dA*dT*dA*d[5mC]*dA*dT*dT*dG*dA*eT*eA*e[5mC]*eA*eA) [compound 323648]”, for which the “% INHIB” value amounted to 31%.

For the substance “323649 (antisense eG*eA*eA*eT*eT*d[5mC]*dA*dT*d[5mC]*dT*dG*dG*dT*dG*dG*eA*eT*eG*e[5mC]*eG) [compound 323649]”, the “% INHIB” value amounted to 81%.

Take “323650 (antisense eG*eT*eT*e[5mC]*eA*dG*dA*dA*dT*dT*d[5mC]*dA*dT*d[5mC]*dT*eG*eG*eT*eG*eG) [compound 323650]”: the “% INHIB” value is on record as 92%.

Consider “323651 (antisense eT*eG*eA*e[5mC]*eA*dG*dT*dT*d[5mC]*dA*dG*dA*dA*dT*dT*e[5mC]*eA*eT*e[5mC]*eT) [compound 323651]”, for which the “% INHIB” value stood at 64%.

“323652 (antisense eA*eG*e[5mC]*eA*e[5mC]*dT*dG*dA*d[5mC]*dA*dG*dT*dT*d[5mC]*dA*eG*eA*eA*eT*eT) [compound 323652]”: the “% INHIB” value stood at 87%.

As for “323653 (antisense eT*eA*eG*e[5mC]*eA*dA*dG*d[5mC]*dA*d[5mC]*dT*dG*dA*d[5mC]*dA*eG*eT*eT*e[5mC]*eA) [compound 323653]”, the “% INHIB” value came to 96%.

For “323654 (antisense eT*eG*eA*eA*eG*dT*dT*dA*dG*d[5mC]*dA*dA*dG*d[5mC]*dA*e[5mC]*eT*eG*eA*e[5mC]) [compound 323654]”, the “% INHIB” value turned out to be 87%.

For “323655 (antisense eT*eT*eG*eA*e[5mC]*dT*dG*dA*dA*dG*dT*dT*dA*dG*d[5mC]*eA*eA*eG*e[5mC]*eA) [compound 323655]”, the “% INHIB” value is on record as 65%.

With “323656 (antisense e[5mC]*eT*eA*eT*eT*dT*d[5mC]*dA*dG*dG*dT*dT*dG*dA*d[5mC]*eT*eG*eA*eA*eG) [compound 323656]”, the “% INHIB” value came out at 76%.

In the case of “323657 (antisense eT*e[5mC]*eT*eG*eT*dT*dA*dT*dA*dT*dT*dA*dG*dA*dA*eA*eT*eT*eG*eG) [compound 323657]”, the “% INHIB” value came out at 43%.

Regarding “323658 (antisense eG*e[5mC]*eA*eG*eG*dT*d[5mC]*dA*dA*dA*dT*dT*dT*dA*dT*eG*eT*eA*e[5mC]*eA) [compound 323658]”, the “% INHIB” value was 36%.

“323659 (antisense eG*eT*eA*eT*eA*dG*dA*dT*dG*dA*dG*d[5mC]*dA*dG*dG*eT*e[5mC]*eA*eA*eA) [compound 323659]”: the “% INHIB” value is 56%.

With “323660 (antisense eG*eG*eG*eT*eA*dA*d[5mC]*d[5mC]*dG*dT*dG*dT*dA*dT*dA*eG*eA*eT*eG*eA) [compound 323660]”, the “% INHIB” value came to 71%.

Turning to “323661 (antisense eA*eG*eG*eT*eT*d[5mC]*dT*dG*dG*dG*dT*dA*dA*d[5mC]*d[5mC]*eG*eT*eG*eT*eA) [compound 323661]”, the “% INHIB” value is listed as 68%.

“323662 (antisense eT*eA*eG*e[5mC]*eA*dA*dA*dA*d[5mC]*dA*d[5mC]*dT*d[5mC]*dA*dT*e[5mC]*eT*eT*e[5mC]*eT) [compound 323662]”: the “% INHIB” value was determined as 22%.

Consider “323663 (antisense eG*eT*eT*e[5mC]*eT*dT*dA*dG*d[5mC]*dA*dA*dA*dA*d[5mC]*dA*e[5mC]*eT*e[5mC]*eA*eT) [compound 323663]”, for which the “% INHIB” value is 23%.

As to “323664 (antisense eA*eT*eT*e[5mC]*eT*dT*dG*dG*dT*dT*d[5mC]*dT*dT*dA*dG*e[5mC]*eA*eA*eA*eA) [compound 323664]”, the “% INHIB” value was 35%.

Take “323665 (antisense eG*eA*eT*eA*eG*dT*dT*dG*dA*dA*dT*dT*d[5mC]*dT*dT*eG*eG*eT*eT*e[5mC]) [compound 323665]”: the “% INHIB” value was 43%.

In the case of “323666 (antisense eA*e[5mC]*e[5mC]*eA*eT*d[5mC]*dA*dT*dA*d[5mC]*dT*d[5mC]*dG*dA*dT*eA*eG*eT*eT*eG) [compound 323666]”, the “% INHIB” value stood at 71%.

In the case of “323667 (antisense eA*eT*e[5mC]*eT*eT*dG*dA*dG*dA*dT*dT*dT*d[5mC]*dT*dG*e[5mC]*eA*eT*eA*eA) [compound 323667]”, the “% INHIB” value came out at 52%.

In the case of “323668 (antisense eA*e[5mC]*eA*eT*eT*dA*dT*d[5mC]*dT*dT*dG*dA*dG*dA*dT*eT*eT*e[5mC]*eT*eG) [compound 323668]”, the “% INHIB” value is 39%.

“323669 (antisense e[5mC]*eG*eT*eA*e[5mC]*dA*dG*dT*dT*d[5mC]*dT*dG*dT*dG*dA*e[5mC]*eA*eT*eT*eA) [compound 323669]”: the “% INHIB” value is 68%.

Turning to “323670 (antisense eA*eG*eA*e[5mC]*eA*dA*dG*d[5mC]*dT*dG*dA*dT*dG*dG*dA*eA*eA*e[5mC]*eG*eT) [compound 323670]”, the “% INHIB” value is recorded as 19%.

As to “323671 (antisense eG*eA*eA*eA*e[5mC]*dA*dG*dA*d[5mC]*dA*dA*dG*d[5mC]*dT*dG*eA*eT*eG*eG*eA) [compound 323671]”, the “% INHIB” value is 26%.

Take “323672 (antisense eG*eG*eA*eA*eT*dG*dA*dA*dA*d[5mC]*dA*dG*dA*d[5mC]*dA*eA*eG*e[5mC]*eT*eG) [compound 323672]”: the “% INHIB” value came to 33%.

Take “323673 (antisense e[5mC]*eA*eT*e[5mC]*eA*dG*dG*dG*dA*dA*dT*dG*dA*dA*dA*e[5mC]*eA*eG*eA*e[5mC]) [compound 323673]”: the “% INHIB” value worked out at 38%.

As for “323674 (antisense e[5mC]*eG*eT*eA*eA*d[5mC]*dA*dT*d[5mC]*dA*dG*dG*dG*dA*dA*eT*eG*eA*eA*eA) [compound 323674]”, the “% INHIB” value turned out to be 47%.

Consider “323675 (antisense eA*eG*e[5mC]*eT*e[5mC]*dT*dA*dT*dA*dG*dA*dG*dA*dA*dA*eG*eG*eT*eG*eA) [compound 323675]”, for which the “% INHIB” value came out at 77%.
